Measured values from patent US10072025B2, “Ethyl N-boc piperidinyl pyrazolo pyridones as Janus kinase inhibitors” (Merck Sharp & Dohme Corp., priority 2014, dated 2018).
Where two headings read alike, the source gives them in different places.

What was measured:
[1] = biological target: JAK1 (Homo sapiens (Human), UniProt P23458); assay: Jak Biochemical HTRF Assay (JAK1)
Description: (§1) Jak Biochemical HTRF Assay Protocol
(§2) The ability of compounds to inhibit the activity of JAK1, JAK2, JAK3, and Tyk2 was measured using a recombinant purified GST-tagged catalytic domain for each enzyme (Invitrogen JAK1 #M4290, JAK2 #M4290, JAK3 #M4290, Tyk2 #M4290) in an HTRF format biochemical assay. […] The basic assay protocol is as follows: First, 250 nL of diluted compounds in DMSO were dispensed into the wells of a dry 384-well Black plate (Greiner #781076) using a Labcyte Echo 555 acoustic dispenser. Subsequent reagent additions employed an Agilent Bravo. Next, 18 μL of 1.11× enzyme and 1.11× substrate in 1× assay buffer (Invitrogen kinase buffer # PV3189, 2 mM DTT, 0.05% BSA) were added to the wells and shaken and then preincubated for 30 minutes at room temperature to allow compound binding to equilibrate. After equilibration, 2 μL of 10×ATP in 1× assay buffer was added to initiate the kinase reaction and the plates were shaken and then incubated at room temperature for 120 minutes. At the end of the incubation, 20 μL of 2× stop buffer (streptavidin-Dylight 650 (Thermo #84547B/100 mL), Eu-tagged pY20 antibody (Perkin Elmer #AD0067), EDTA, HEPES, and Triton) was added to quench the reaction. Plates were shaken and centrifuged and then incubated 60 minutes at room temperature and then read on a Perkin Elmer Envision (Xex=337 nm, λem=665 and 615 nm, TRF delay time=20 μs). HTRF signal=10,000*665 nm reading/615 nm reading. After normalization to untreated controls, the percent inhibition of the HTRF signal at each compound concentration was calculated. The plot of percent inhibition versus the log of compound concentration was fit with a 4-parameter dose response equation to calculate IC50 values.

[2] = biological target: JAK2 (Homo sapiens (Human), UniProt O60674); assay: Jak Biochemical HTRF Assay (JAK2); conditions: recombinant purified GST-tagged catalytic domain, [ATP] 8.5 μM, [E] 0.052 nM
Sequence of JAK2 (O60674 849-1124): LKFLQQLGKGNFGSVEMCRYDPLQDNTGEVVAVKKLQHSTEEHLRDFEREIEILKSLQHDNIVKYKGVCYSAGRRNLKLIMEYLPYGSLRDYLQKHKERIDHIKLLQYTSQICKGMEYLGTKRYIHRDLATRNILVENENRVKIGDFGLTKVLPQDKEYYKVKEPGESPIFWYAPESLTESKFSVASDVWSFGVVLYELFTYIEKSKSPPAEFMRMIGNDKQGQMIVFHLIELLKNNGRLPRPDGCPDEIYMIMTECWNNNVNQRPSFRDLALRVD
Description: as §1, §2

[3] = recombinant purified GST-tagged catalytic domain, HTRF, [ATP] 31.8 μM, [E] 1.405 nM

Sequence of JAK1 (P23458 875-1153): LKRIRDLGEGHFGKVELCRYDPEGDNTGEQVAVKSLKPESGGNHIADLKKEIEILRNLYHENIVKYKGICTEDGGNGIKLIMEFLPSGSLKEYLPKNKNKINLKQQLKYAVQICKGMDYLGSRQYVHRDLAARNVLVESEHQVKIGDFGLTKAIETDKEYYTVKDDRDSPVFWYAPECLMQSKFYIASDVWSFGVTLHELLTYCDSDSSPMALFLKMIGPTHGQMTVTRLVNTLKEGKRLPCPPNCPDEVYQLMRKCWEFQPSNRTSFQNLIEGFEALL

Row | Structure (SMILES) | IC50 [1, 3] [nM] | IC50 [2] [nM] | IC50 [1] [nM]
1 | CCC1(n2nc(Nc3ccnc(F)c3)c3c(=O)[nH]ccc32)CCN(C(=O)OC(C)(C)C)CC1 [Example 2-40, tert-butyl 4-ethyl-4-(3-(2-fluoropyridin-4-ylamino)-4-oxo-4,5-dihydropyrazolo[4,3-c]pyridin-1-yl) piperidine-1-carboxylate] | 0.38 | 5.24 | –
2 | CCC1(n2nc(Nc3ccc4c(c3)CN(C3CCOCC3)S4(=O)=O)c3c(=O)[nH]ccc32)CCN(C(=O)OC(C)(C)C)CC1 [Example 2-5, tert-butyl 4-ethyl-4-(3-{[2-(oxan-4-yl)-1,1-dioxo-2,3-dihydro-1,2-benzothiazol-5-yl]amino}-4-oxo-1H,4H,5H-pyrazolo [4,3-c]pyridin-1-yl) piperidine-1-carboxylate] | 0.54 | 0.6 | –
3 | CCC1(n2nc(Nc3ccc(C(=O)N4CCC(F)(F)CC4)c(C)c3)c3c(=O)[nH]ccc32)CCN(C(=O)OC(C)(C)C)CC1 [Example 2-26, tert-butyl 4-(3-(4-(4,4-difluoropiperidine-1-carbonyl)-3-methylphenylamino)-4-oxo-4,5-dihydropyrazolo [4,3-c]pyridin-1-yl)-4-ethylpiperidine-1-carboxylate] | 1.19 | 1.44 | –
4 | CCC1(n2nc(Nc3ccc(C(O)C(F)(F)F)cc3)c3c(=O)[nH]ccc32)CCN(C(=O)OC(C)(C)C)CC1 (stereo not drawn) [Example 2-43, tert-butyl 4-ethyl-4-(4-oxo-3-((4-(2,2,2-trifluoro-1-hydroxyethyl)phenyl)amino)-4,5-dihydro-1H-pyrazolo[4,3-c]pyridin-1-yl) piperidine-1-carboxylate] | 0.9 | 2.91 | –
5 | CCC1(n2nc(Nc3ccc(C(=O)N4CC5CCC(C4)O5)c(C)c3)c3c(=O)[nH]ccc32)CCN(C(=O)OC(C)(C)C)CC1 [Example 2-1, tert-butyl 4-(3-((4-(8-oxa-3-azabicyclo[3.2.1]octane-3-carbonyl)-3-methylphenyl)amino)-4-oxo-4,5-dihydro-1H-pyrazolo[4,3-c]pyridin-1-yl)-4-ethylpiperidine-1-carboxylate] | 0.47 | 0.49 | –
6 | CCC1(n2nc(Nc3ccc(C(=O)O)c(C)c3)c3c(=O)[nH]ccc32)CCN(C(=O)OC(C)(C)C)CC1 [Example 2-44, 4-((1-(1-(tert-butoxycarbonyl)-4-ethylpiperidin-4-yl)-4-oxo-4,5-dihydro-1H-pyrazolo [4,3-c]pyridin-3-yl)amino)-2-methylbenzoic acid] | 0.23 | 2.1 | –
7 | CCC1(n2nc(Nc3ccc(C(=O)N4CCSCC4)c(C)c3)c3c(=O)[nH]ccc32)CCN(C(=O)OC(C)(C)C)CC1 [Example 2-21, tert-butyl 4-ethyl-4-(3-(3-methyl-4-(thiomorpholine-4-carbonyl)phenylamino)-4-oxo-4,5-dihydropyrazolo[4,3-c]pyridin-1-yl) piperidine-1-carboxylate] | 0.84 | 0.93 | –
8 | CCC1(n2nc(Nc3ccc(C4CCN(CC(F)(F)F)CC4)cc3)c3c(=O)[nH]ccc32)CCN(C(=O)OC(C)(C)C)CC1 [Example 2-3, tert-butyl 4-ethyl-4-(4-oxo-3-(4-(1-(2,2,2-trifluoroethyl)piperidin-4-yl)phenylamino)-4,5-dihydropyrazolo [4,3-c]pyridin-1-yl) piperidine-1-carboxylate] | 10.2 | 71.3 | –
9 | CCC1(n2nc(Nc3ccc(C(=O)N4C[C@H]5C[C@@H](C4)O5)c(C)c3)c3c(=O)[nH]ccc32)CCN(C(=O)OC(C)(C)C)CC1 [Example 3-6, tert-butyl 4-ethyl-4-[3-({3-methyl-4-[(1R,5S)-6-oxa-3-azabicyclo[3.1.1]hept-3-ylcarbonyl]phenyl}amino)-4-oxo-4,5-dihydro-1H-pyrazolo[4,3-c]pyridin-1-yl]piperidine-1-carboxylate] | – | 0.43 | 0.3
10 | CCC1(n2nc(Nc3ccc(C(=O)N4CCOC[C@H]4C(C)C)c(C)c3)c3c(=O)[nH]ccc32)CCN(C(=O)OC(C)(C)C)CC1 [Example 3-8, tert-butyl 4-ethyl-4-{3-[(3-methyl-4-{[(3R)-3-(1-methylethyl)morpholin-4-yl]carbonyl}phenyl)amino]-4-oxo-4,5-dihydro-1H-pyrazolo[4,3-0]pyridin-1-yl} piperidine-1-carboxylate] | 0.93 | 1.01 | –

Continued, in another order:

Row | IC50 [1, 3] [nM] | IC50 [2] [nM] | Structure (SMILES) | IC50 [1] [nM]
11 | 0.79 | 1.05 | CCC1(n2nc(Nc3ccc(C(=O)N4CCCSCC4)c(C)c3)c3c(=O)[nH]ccc32)CCN(C(=O)OC(C)(C)C)CC1 [Example 3-9, tert-butyl 4-ethyl-4-(3-{[3-methyl-4-(1,4-thiazepan-4-ylcarbonyl)phenyl]amino}-4-oxo-4,5-dihydro-1H-pyrazolo[4,3-c]pyridin-1-yl) piperidine-1-carboxylate] | –
12 | 1.23 | 0.89 | CCC1(n2nc(Nc3ccc(C(=O)N4CCOCC(C)C4)c(C)c3)c3c(=O)[nH]ccc32)CCN(C(=O)OC(C)(C)C)CC1 (single isomer, unassigned) [Example 3-19, tert-butyl 4-ethyl-4-[3-({3-methyl-4-[(6R or 6S-methyl-1,4-oxazepan-4-yl)carbonyl]phenyl}amino)-4-oxo-4,5-dihydro-1H-pyrazolo [4,3-c]pyridin-1-yl] piperidine-1-carboxylate] | –
13 | 1.09 | 1.17 | CCC1(n2nc(Nc3ccc(C(=O)N4C[C@@H](C)O[C@@H](C)C4)c(C)c3)c3c(=O)[nH]ccc32)CCN(C(=O)OC(C)(C)C)CC1 [Example 3-4, tert-butyl 4-{3-[(4-{[(2R,6S)-2,6-dimethylmorpholin-4-yl]carbonyl}-3-methylphenyl)amino]-4-oxo-4,5-dihydro-1H-pyrazolo[4,3-c]pyridin-1-yl}-4-ethylpiperidine-1-carboxylate] | –
14 | 0.52 | 0.63 | CCC1(n2nc(Nc3ccc(C(=O)N4C[C@H](C)O[C@@H](C)C4)c(C)c3)c3c(=O)[nH]ccc32)CCN(C(=O)OC(C)(C)C)CC1 [Example 3-7, tert-butyl 4-{3-[(4-{[(2S,6S)-2,6-dimethylmorpholin-4-yl]carbonyl}-3-methylphenyl)amino]-4-oxo-4,5-dihydro-1H-pyrazolo[4,3-c]pyridin-1-yl}-4-ethylpiperidine-1-carboxylate] | –
15 | 0.99 | 1.53 | CCC1(n2nc(Nc3ccc(C(=O)N4CCOC5(CCCC5)C4)c(C)c3)c3c(=O)[nH]ccc32)CCN(C(=O)OC(C)(C)C)CC1 [Example 3-3, tert-butyl 4-ethyl-4-(3-{[3-methyl-4-(6-oxa-9-azaspiro[4.5]dec-9-ylcarbonyl)phenyl]amino}-4-oxo-4,5-dihydro-1H-pyrazolo[4,3-c]pyridin-1-yl) piperidine-1-carboxylate] | –
16 | 0.56 | 0.68 | CCC1(n2nc(Nc3ccc(C(=O)N4CCC(N5CCSCC5)CC4)c(C)c3)c3c(=O)[nH]ccc32)CCN(C(=O)OC(C)(C)C)CC1 [Example 3-12, tert-butyl 4-ethyl-4-[3-({3-methyl-4-[(4-thiomorpholin-4-ylpiperidin-1-yl)carbonyl]phenyl}amino)-4-oxo-4,5-dihydro-1H-pyrazolo[4,3-c]pyridin-1-yl] piperidine-1-carboxylate] | –
17 | 0.99 | 0.53 | CCC1(n2nc(Nc3ccc(C(=O)N4CCOCC(C)C4)c(C)c3)c3c(=O)[nH]ccc32)CCN(C(=O)OC(C)(C)C)CC1 (single isomer, unassigned) [Example 3-20, tert-butyl 4-ethyl-4-[3-({3-methyl-4-[(6R or 6S-methyl-1,4-oxazepan-4-yl)carbonyl]phenyl}amino)-4-oxo-4,5-dihydro-1H-pyrazolo[4,3-c]pyridin-1-yl] piperidine-1-carboxylate] | –
18 | 0.73 | 1.21 | CCC1(n2nc(Nc3ccc(C(=O)N4CCOCC4(C)C)c(C)c3)c3c(=O)[nH]ccc32)CCN(C(=O)OC(C)(C)C)CC1 [Example 3-5, tert-butyl 4-[3-({4-[(3,3-dimethylmorpholin-4-yl)carbonyl]-3-methylphenyl}amino)-4-oxo-4,5-dihydro-1H-pyrazolo[4,3-c]pyridin-1-yl]-4-ethylpiperidine-1-carboxylate] | –
